Measurements published in ChEMBL document CHEMBL1201862, “PubChem BioAssay data set” (2004).
Active and inactive are the calls of the source.

Tests used:
[1] = C. albicans growth with fluconazole, confirmation, fluorescence, retest (AID 2467); type: functional, cell-based
INS1 = assay: beta cell apoptosis inhibitors, cytokine rescue, dose response, luminescence, retest (AID 449756); type: functional, cell-based; settings: Rattus norvegicus;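 note: cell death triggered by IL-1 beta plus TNF-alpha plus IFN-gamma mixture; protective hits raise ATP signal compared with cytokine alone wells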
CAAX prenyl protease 1 = CAAX prenyl protease 1 (Saccharomyces cerevisiae S288c, UniProt P47154); assay: Ste24 protease inhibitors, dose response, biochemical, S. cerevisiae, plate reader, cherry-pick (AID 488815)
CAAX prenyl protease 1, sequence (P47154 whole entry): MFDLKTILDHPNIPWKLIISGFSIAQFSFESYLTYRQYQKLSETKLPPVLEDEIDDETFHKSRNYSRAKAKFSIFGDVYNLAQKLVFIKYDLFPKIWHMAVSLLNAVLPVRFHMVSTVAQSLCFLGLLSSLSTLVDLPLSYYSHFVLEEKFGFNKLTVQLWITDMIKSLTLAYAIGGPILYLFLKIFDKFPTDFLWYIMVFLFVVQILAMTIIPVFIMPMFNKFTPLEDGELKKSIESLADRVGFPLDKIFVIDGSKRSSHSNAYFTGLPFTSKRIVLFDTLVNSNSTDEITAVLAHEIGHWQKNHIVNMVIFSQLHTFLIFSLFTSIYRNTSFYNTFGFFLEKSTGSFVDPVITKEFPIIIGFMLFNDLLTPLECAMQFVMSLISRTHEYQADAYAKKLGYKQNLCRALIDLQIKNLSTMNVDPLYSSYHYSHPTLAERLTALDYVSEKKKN

[2] = NIH-3T3 fibroblast cytotoxicity, dose response, cytotoxicity control, cell-based, fluorescence, Alamar Blue, secondary assay (AID 2327); type: functional;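 note: NIH-3T3 mouse fibroblasts cultured with fluconazole at 8 µg/mL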
CAAX prenyl protease 2 = CAAX prenyl protease 2 (Homo sapiens, UniProt Q9Y256); assay: human Rce1 protease inhibitors, dose response, biochemical, yeast membranes, quenched-peptide fluorescence, cherry-pick (AID 588849)
CAAX prenyl protease 2, sequence (Q9Y256 whole entry): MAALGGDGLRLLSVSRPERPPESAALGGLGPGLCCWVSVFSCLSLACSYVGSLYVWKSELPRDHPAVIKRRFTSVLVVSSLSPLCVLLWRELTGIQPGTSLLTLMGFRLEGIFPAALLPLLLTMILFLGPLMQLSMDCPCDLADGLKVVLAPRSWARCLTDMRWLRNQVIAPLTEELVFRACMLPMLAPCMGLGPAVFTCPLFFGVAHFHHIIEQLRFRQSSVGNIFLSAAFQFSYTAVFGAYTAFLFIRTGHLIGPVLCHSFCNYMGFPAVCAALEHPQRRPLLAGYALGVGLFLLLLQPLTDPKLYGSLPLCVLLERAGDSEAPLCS

BJ [3] = assay: cells; type: functional, cell-based; settings: Homo sapiens
BJ [4] = assay: cytotoxicity toward BJ-TERT-LT-ST fibroblasts, dose response, cell-based, RAS-independent, luminescence (AID 1935); type: functional; settings: Homo sapiens;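 note: BJ fibroblasts immortalized with TERT plus LT and ST oncogenes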
[5] = cytotoxicity toward DRD oncogenic fibroblasts, dose response, cell-based, non-viral oncogenic, luminescence (AID 1934); type: functional; settings: Homo sapiens
[6] = cytotoxicity in HEK-293T cells, dose response, cytotoxicity control for TCR NF-kB inhibitor project, luminescence, T-cell screen hits (AID 489026); type: functional, cell-based;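 note: cells exposed to compound about 14 hours before the viability readout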
Trypsin = Trypsin (Sus scrofa, UniProt P00761); assay: porcine trypsin inhibitors, dose response, selectivity assay for Rce1 protease inhibitor project, biochemical, quenched peptide fluorescence, cherry-pick (AID 488789)
Trypsin, sequence (P00761 whole entry): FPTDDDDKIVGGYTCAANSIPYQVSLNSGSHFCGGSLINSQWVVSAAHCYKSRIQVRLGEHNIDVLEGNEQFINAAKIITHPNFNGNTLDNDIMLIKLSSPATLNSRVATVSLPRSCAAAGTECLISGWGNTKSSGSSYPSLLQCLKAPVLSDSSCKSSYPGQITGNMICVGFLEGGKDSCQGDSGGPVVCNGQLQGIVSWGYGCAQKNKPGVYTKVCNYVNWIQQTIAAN

BJ [7] = assay: cytotoxicity toward BJ-TERT fibroblasts, dose response, cell-based, RAS-independent, luminescence (AID 1933); type: functional; settings: Homo sapiens
[8] = biological target: T1, Kappa-type opioid receptor (Homo sapiens, UniProt P41145); type: functional
T1 sequence (P41145 whole entry): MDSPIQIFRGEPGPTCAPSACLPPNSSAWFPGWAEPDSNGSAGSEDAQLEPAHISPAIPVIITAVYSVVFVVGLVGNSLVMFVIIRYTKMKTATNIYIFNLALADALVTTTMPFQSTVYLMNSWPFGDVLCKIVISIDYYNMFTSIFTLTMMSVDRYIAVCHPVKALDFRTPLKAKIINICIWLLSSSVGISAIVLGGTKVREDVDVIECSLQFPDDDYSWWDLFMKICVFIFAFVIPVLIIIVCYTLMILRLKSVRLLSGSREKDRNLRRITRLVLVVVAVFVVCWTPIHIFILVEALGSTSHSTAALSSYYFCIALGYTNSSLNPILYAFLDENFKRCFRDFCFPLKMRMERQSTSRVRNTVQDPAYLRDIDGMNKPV

[9] = cytotoxicity toward NIH3T3 fibroblasts, dose response, counter-screen, cell-based, ATP luminescence, mouse fibroblasts (AID 2010); type: functional;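 note: cells exposed to compound for about 90 hours before reading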
Beta-galactosidase [10] = biological target: T2, Beta-galactosidase (Escherichia coli, UniProt Q8VNN2); assay: PubChem AID 485352; type: functional
T2 sequence (Q8VNN2 whole entry): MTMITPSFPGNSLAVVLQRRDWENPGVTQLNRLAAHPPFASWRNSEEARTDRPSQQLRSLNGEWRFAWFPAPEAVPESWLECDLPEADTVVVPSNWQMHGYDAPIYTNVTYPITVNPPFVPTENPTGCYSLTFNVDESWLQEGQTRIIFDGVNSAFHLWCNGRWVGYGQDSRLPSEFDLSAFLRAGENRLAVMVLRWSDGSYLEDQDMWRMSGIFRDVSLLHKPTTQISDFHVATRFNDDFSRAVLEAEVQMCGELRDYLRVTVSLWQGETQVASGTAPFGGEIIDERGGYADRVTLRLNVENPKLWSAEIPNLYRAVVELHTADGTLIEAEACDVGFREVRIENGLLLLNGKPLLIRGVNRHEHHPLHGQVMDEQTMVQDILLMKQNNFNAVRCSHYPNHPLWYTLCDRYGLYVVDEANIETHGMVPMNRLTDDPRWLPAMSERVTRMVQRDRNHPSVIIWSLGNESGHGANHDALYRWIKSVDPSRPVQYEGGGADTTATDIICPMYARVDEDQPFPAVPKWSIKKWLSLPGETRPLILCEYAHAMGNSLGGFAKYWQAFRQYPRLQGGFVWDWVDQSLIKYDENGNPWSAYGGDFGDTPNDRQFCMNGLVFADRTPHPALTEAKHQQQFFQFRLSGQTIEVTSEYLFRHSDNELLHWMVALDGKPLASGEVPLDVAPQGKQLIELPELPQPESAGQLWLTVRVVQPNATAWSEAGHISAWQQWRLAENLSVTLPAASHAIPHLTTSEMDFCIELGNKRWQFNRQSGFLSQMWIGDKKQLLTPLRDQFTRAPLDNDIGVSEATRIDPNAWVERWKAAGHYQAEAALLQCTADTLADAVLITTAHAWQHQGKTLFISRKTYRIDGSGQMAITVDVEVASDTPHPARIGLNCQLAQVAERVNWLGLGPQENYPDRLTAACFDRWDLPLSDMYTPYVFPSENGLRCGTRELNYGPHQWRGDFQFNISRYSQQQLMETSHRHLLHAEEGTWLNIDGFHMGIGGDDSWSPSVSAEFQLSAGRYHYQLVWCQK

Streptococcus = assay: Group A Streptococcus viability loss, dose response, counter-screen for streptokinase expression inhibitor project, luminescence, BacTiterGlo (AID 1915); type: functional, organism-based;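 note: potency for reduction of bacterial viability or growth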
[11] = HepG2 cell cytotoxicity, dose response, cytotoxicity control for non-replicating M. tuberculosis project (AID 489018); type: functional; settings: Mycobacterium tuberculosis
[12] = inhibitors of intracellular T. cruzi replication, confirmation, NIH3T3 host cells, beta-gal luminescence (AID 2044); type: functional, cell-based;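 note: intracellular parasites grown in NIH/3T3 mouse fibroblasts as host cells; luminescent beta-galactosidase reporter signal from transgenic T. cruzi replicating inside host cells; inhibitors lower the luminescence signal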
[13] = biological target: T3, Delta-type opioid receptor (Homo sapiens, UniProt P41143); assay: HTS Image-Based Screen for Antagonists of the DOR Receptor. [Related pubchem assays (depositor defined):AID1777, AID1785, AID1786, AID2133]; type: functional
T3 sequence (P41143 whole entry): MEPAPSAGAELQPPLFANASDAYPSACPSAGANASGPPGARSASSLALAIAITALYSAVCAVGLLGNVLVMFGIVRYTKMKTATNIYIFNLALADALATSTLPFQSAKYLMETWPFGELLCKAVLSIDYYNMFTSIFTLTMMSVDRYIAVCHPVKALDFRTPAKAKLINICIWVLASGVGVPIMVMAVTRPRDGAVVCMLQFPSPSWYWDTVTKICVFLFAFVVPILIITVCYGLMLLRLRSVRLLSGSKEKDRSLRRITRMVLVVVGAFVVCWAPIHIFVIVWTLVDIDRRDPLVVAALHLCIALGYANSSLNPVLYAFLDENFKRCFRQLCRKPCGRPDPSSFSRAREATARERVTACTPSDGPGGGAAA

[14] = Vero E6 cell cytotoxicity, dose response, cytotoxicity control for non-replicating M. tuberculosis project, secondary assay (AID 492998); type: functional, VeroE6; settings: Vero C1008
[15] = test system: Streptococcus sp. 'group A'; assay: growth inhibition of control SK(-) GAS strain, dose response, counter-screen for streptokinase expression inhibitor project, luminescence, kanamycin, BacTiterGlo, confirmation (AID 1900); type: functional, organism-based
[16] = biological target: T3, Delta-type opioid receptor; assay: HTS Image-Based Screen for Agonists of the DOR Receptor. [Related pubchem assays (depositor defined):AID1777, AID1786, AID2133]; type: functional
[17] = biological target: T1, Kappa-type opioid receptor; type: functional; remark: listed apart in the source
[18] = biological target: Type-1 angiotensin II receptor (Homo sapiens, UniProt P30556); assay: AT1 receptor antagonists, dose response, selectivity assay for APJ receptor antagonist project, cell-based, uHTS hits (AID 463214); type: functional;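 note: antagonist potency against angiotensin II stimulated AT1 response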
Type-1 angiotensin II receptor, sequence (P30556 whole entry): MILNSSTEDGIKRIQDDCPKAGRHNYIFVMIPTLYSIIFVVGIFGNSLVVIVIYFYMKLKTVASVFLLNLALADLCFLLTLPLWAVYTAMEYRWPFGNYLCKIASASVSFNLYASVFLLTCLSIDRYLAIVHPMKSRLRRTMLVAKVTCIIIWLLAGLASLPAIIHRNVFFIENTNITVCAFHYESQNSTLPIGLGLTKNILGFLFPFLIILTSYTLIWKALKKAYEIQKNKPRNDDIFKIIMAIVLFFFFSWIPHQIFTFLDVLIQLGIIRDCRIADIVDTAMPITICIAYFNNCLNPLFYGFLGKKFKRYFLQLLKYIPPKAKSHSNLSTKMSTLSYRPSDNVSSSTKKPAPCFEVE

Mu-type opioid receptor = Mu-type opioid receptor (Homo sapiens, UniProt P35372); assay: HTS Image-Based Screen for Agonists of the MOR Receptor. [Related pubchem assays (depositor defined):AID1777, AID1785, AID1786, AID2133]; type: functional;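 note: imaging of beta-arrestin GFP recruitment into spots after receptor activation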
Mu-type opioid receptor, sequence (P35372 whole entry): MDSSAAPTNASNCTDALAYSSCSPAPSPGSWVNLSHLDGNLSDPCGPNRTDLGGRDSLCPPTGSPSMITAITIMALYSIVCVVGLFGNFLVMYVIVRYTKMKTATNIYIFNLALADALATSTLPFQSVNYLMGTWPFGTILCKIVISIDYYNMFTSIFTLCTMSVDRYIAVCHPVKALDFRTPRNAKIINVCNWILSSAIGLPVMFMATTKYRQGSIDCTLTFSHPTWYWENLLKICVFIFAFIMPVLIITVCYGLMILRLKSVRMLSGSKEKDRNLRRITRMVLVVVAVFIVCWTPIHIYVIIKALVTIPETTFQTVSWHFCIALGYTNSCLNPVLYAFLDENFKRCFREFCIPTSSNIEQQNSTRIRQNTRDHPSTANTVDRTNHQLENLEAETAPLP

[19] = THP-1 cell cytotoxicity, dose response, cytotoxicity control for non-replicating M. tuberculosis project (AID 489025); type: functional
cells = type: functional
Beta-galactosidase [20] = biological target: T2, Beta-galactosidase; type: functional
DNA topoisomerase = DNA topoisomerase (Yersinia pestis, UniProt A0A2S9PM60); assay: Y. pestis Topo-I inhibitors, cleavage product readout, dose response, biochemical, cherry-pick (AID 588525)
DNA topoisomerase, sequence (A0A2S9PM60 whole entry): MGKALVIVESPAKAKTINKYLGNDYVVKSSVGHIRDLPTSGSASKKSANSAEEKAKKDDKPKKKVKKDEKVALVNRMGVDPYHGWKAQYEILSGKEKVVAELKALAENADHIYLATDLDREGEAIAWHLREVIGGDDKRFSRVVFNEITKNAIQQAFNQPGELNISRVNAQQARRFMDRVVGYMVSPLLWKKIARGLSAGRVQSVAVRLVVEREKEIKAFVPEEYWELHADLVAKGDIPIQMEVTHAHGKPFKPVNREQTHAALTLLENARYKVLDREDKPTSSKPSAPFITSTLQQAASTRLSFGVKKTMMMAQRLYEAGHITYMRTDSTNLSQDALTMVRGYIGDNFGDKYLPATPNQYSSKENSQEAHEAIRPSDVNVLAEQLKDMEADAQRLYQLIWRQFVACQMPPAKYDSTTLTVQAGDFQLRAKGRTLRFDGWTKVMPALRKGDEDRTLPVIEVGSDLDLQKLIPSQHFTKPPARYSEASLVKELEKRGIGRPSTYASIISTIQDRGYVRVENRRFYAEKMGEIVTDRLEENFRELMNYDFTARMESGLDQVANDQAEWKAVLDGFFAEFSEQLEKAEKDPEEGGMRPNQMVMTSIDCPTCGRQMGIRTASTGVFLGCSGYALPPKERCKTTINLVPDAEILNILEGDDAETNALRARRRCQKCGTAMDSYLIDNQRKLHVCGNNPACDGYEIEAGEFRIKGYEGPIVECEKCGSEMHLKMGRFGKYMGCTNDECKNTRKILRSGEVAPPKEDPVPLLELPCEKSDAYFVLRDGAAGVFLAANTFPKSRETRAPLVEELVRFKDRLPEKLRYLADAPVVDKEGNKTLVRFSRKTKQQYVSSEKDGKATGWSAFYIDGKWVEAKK

[21] = biological target: Beta-2 adrenergic receptor (Homo sapiens, UniProt P07550); assay: beta2AR agonists driving receptor internalization, dose response, cell-based, FAP fluorogen, flow cytometry, cherry pick 1 (AID 588763); type: functional
Beta-2 adrenergic receptor, sequence (P07550 whole entry): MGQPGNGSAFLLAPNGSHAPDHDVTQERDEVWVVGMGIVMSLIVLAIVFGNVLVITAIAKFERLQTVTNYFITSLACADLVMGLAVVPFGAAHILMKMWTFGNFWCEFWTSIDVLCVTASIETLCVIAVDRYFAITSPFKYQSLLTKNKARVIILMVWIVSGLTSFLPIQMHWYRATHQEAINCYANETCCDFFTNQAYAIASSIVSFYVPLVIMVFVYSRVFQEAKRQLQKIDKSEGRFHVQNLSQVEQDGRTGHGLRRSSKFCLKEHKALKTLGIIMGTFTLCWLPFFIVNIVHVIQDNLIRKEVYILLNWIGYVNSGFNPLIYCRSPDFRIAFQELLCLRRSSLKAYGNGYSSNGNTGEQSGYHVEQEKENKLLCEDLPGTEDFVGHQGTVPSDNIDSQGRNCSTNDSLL

[22] = biological target: T4, Endoribonuclease toxin MazF (Escherichia coli K-12, UniProt P0AE70); assay: MazF toxin RNase activators, dose response, biochemical, fluorescence, single-stranded RNA substrate, uHTS hits (AID 588481); type: functional
T4 sequence (P0AE70 whole entry): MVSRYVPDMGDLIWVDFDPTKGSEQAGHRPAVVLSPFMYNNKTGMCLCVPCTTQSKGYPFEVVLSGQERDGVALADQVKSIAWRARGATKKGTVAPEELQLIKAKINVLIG

[23] = biological target: Peroxisome proliferator-activated receptor gamma/Nuclear receptor coactivator 3 (Homo sapiens, UniProt P37231); type: functional;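 note: agonist potency for raising coactivator recruitment to the receptor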
[24] = biological target: Peroxisome proliferator-activated receptor gamma/Nuclear receptor coactivator 1 (Homo sapiens, UniProt P37231); type: functional;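 note: agonist potency as compounds enhance coactivator SRC-1 recruitment to PPARgamma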
[25] = biological target: T4, Endoribonuclease toxin MazF; assay: fluorescent RNA oligo signal without MazF, dose response, counter-screen for MazEF activator project, biochemical, fluorescence, single-stranded RNase substrate (AID 588502); type: functional
[26] = biological target: Peroxisome proliferator-activated receptor gamma/Nuclear receptor coactivator 2 (Homo sapiens, UniProt P37231); type: functional;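 note: agonist potency for raising coactivator recruitment to the receptor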

Cc1ccc(-c2cc(-c3ccc(C)cc3)[n+](-c3ccccc3)c(-c3ccc(C)cc3)c2)cc1.[O-][Cl+3]([O-])([O-])[O-]
EC50 [1]: 0.178 µM (active)
AC50 (INS1): 0.382 µM (active)
AC50 (CAAX prenyl protease 1): 13.7 µM (active)
EC50 [2]: 18.4 µM (inconclusive)
AC50 (CAAX prenyl protease 2): 20.7 µM (active)
EC50 (BJ [3]): 2.12 µM (active)
EC50 (BJ [4]): 1.33 µM (inconclusive)
EC50 [5]: 1.05 µM (active)
IC50 [6]: 20.3 µM (inactive)
AC50 (Trypsin): 23.8 µM (active)
EC50 (BJ [7]): 0.689 µM (active)

Cc1[nH]c2ccccc2c1/C=C1\SC(=N)N(c2nccs2)C1=O
IC50 [8]: 6.76 µM (active)
EC50 [9]: 5.8 µM (active)
EC50 (Beta-galactosidase [10]): > 40 µM (inactive)
EC50 (Streptococcus): 1.08 µM (active)
CC50 [11]: 8.83 µM (active)
EC50 [12]: 1.17 µM (active)
IC50 [13]: 23.4 µM (inactive)
CC50 [14]: 5.16 µM (active)
EC50 [15]: 0.198 µM (active)
EC50 [16]: > 32 µM (inactive)
IC50 [17]: 18.1 µM
IC50 [18]: 14.8 µM (active)
EC50 (Mu-type opioid receptor): > 32 µM (inactive)
CC50 [19]: 10.1 µM (active)
IC50 (cells): < 0.1 µM (active)
EC50 (Beta-galactosidase [20]): > 31.5 µM (inactive)

Cc1ccc(SCc2cc(O)nc(Nc3nc(C)c4ccc(C)cc4n3)n2)cc1
AC50 (DNA topoisomerase): 2.96 µM (active)

CN(C)c1ccc(-c2noc(C3CCN(S(=O)(=O)c4cccc(Cl)c4)CC3)n2)cc1
EC50 [21]: 1.23 µM (active)

N#Cc1ccc(-c2ccccc2)nc1SCC(=O)c1cc2ccccc2oc1=O
EC50 [22]: > 99 µM (inactive)
EC50 [23]: 16.4 µM (not active)
EC50 [24]: 15.5 µM (not active)
EC50 (Streptococcus): 2.22 µM (active)
EC50 [25]: > 99 µM (inactive)
EC50 [26]: 13.7 µM (not active)
EC50 [15]: 0.862 µM (active)
